Each structure is given as a SMILES string.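 Briefly, cells in 96-well plates were exposed to five compound concentrations for 48 h, and endpoints were estimated by linear interpolation. GI50: concentration for 50% inhibition of growth. TGI: concentration producing complete growth inhibition.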 Where only a bound is given, the exact number is not on record here.

The test system of one test is OVCAR-4 ovarian. Nature of the test: NCI tumour cell line growth inhibition, 48 h.
Take `CC1CCc2nc[nH]c(=O)c21` (stereo unspecified): the GI50 was > 100 µM and the TGI was > 100 µM.
For `Cc1cc(N(CCC#N)CCC#N)ccc1N=Nc1ccc(S(N)(=O)=O)cc1`, the TGI was > 100 µM.
The same measure, in the same setting: the same measure for `Cc1nc2c(ccc3ncccc32)[nH]1`: > 100 µM.
Take `CN(C)C(=S)N=C(Nc1ccccc1)Nc1ccccc1`: the TGI was > 100 µM.
Take `Nc1ccccc1S(=O)(=O)N(CC(=O)O)c1ccccc1`: the TGI is > 100 µM.
For the compound `COc1ccccc1N1C(=O)C2c3[nH]c4ccccc4c3C3CCC(C(C)(C)C)CC3C2C1=O` (stereo unspecified), the TGI is > 100 µM.
In the case of `C=CCO[C@H]1CO[C@H]2[C@@H]1OC[C@@H]2Oc1ccc(Nc2ccnc(Nc3ccc(O[C@H]4CO[C@H]5[C@@H]4OC[C@@H]5OCC=C)c(Cl)c3)n2)cc1Cl`, the GI50 was 1.57 µM and the TGI is 2.93 µM.
In the case of `O=C(O)CCC(NC(=O)c1ccc(Nc2nc3ccccc3nc2-c2cccs2)cc1)C(=O)O` (stereo unspecified), the TGI is > 100 µM.
With `COc1cc2ccnc([C@@H](OC(=O)c3ccccc3)c3ccc(OC)c(OC)c3OC)c2cc1OC`, the TGI was > 100 µM.
For the compound `COC(=O)/C(C#N)=C1\NC(=O)c2ccccc21`, the TGI is > 100 µM.
`O=C(O)CCNCCCNCCC(=O)O`: the TGI was > 100 µM.
For the compound `Cc1nc2sccn2c1-c1csc(Nc2ccccc2Cl)n1`, the GI50 is 2.35 µM and the TGI was 83.5 µM.
In the case of `NC1=NCCC1(c1ccccc1)c1ccccn1` (stereo unspecified), the TGI is > 100 µM.
Consider `CC(C)=CCC\C(C)=C/C=C/C(C)=C\C=C\C(C)=C/C=C/C=C(C)\C=C\C=C(C)/C=C/C=C(/C)CCC=C(C)C`, for which the TGI was > 100 µM.
In the case of `COC(=O)c1ccccc1NC(=O)C(=O)Cc1nc2c3c(ccc2[nH]c1=O)C(=O)c1ccccc1C3=O`, the TGI is 98 µM.
On to `FC(F)(F)c1cccc(Nc2nc(-c3ccccc3)nc3ncccc23)c1`, for which the GI50 is 8.05 µM and the TGI amounted to 45.6 µM.
In the case of `CCOC(=O)C(C)(C)Oc1ccc2c(-c3ccccc3)cc(=O)oc2c1`, the TGI was > 100 µM.
On to `CCCC1C(=O)CCc2c(OC)ccc(OC)c21` (stereo unspecified), for which the TGI was > 100 µM.
As for `NC(=O)NO.O.O.O.O.O.O.O.O.O.O.O.[Ge].[Ge].[Ge].[Ge].[Ge].[O]=[Ge].[O]=[Ge].[O]=[Ge].[O]=[Ge].[O]=[Ge][OH]`, the TGI was > 100 µM.
Take `O=C(Nc1nc2ccc([N+](=O)[O-])cc2s1)C(=O)C(C1OC(=O)c2ccccc21)[N+](=O)[O-]` (stereo unspecified): the TGI was > 100 µM.
For `COc1cc2cc(OC)c3cc4c(cc3c2c(OC)c1OC)OCO4`, the TGI is > 100 µM.
`CCC[CH2][Sn]([CH2]CCC)([S]c1cccc2cccnc12)[S]c1cccc2cccnc12`: the GI50 was 0.135 µM and the TGI stood at 0.307 µM.
As for `COC(=O)C1(C(C)C)CCc2c(OC)ccc(OC)c2C1=O` (stereo unspecified), the TGI is > 100 µM.
As to `OCc1cc2ccccc2c2c3c(ccc12)OCO3`, the GI50 is 30.6 µM and the TGI was found to be 603 µM.

A further test deals with CCRF-CEM leukemia. Nature of the test: NCI tumour cell line growth inhibition, 48 h.
On to `CC1CCc2nc[nH]c(=O)c21` (stereo unspecified), for which the GI50 was > 100 µM and the TGI was > 100 µM.
As for `Cc1cc(N(CCC#N)CCC#N)ccc1N=Nc1ccc(S(N)(=O)=O)cc1`, the TGI was > 100 µM.
For `Cc1nc2c(ccc3ncccc32)[nH]1`, the TGI is > 100 µM.
Still for that read-out and setting: for `CN(C)C(=S)N=C(Nc1ccccc1)Nc1ccccc1` the value was > 100 µM.
For `Nc1ccccc1S(=O)(=O)N(CC(=O)O)c1ccccc1`, the TGI was > 100 µM.
As to `COc1ccccc1N1C(=O)C2c3[nH]c4ccccc4c3C3CCC(C(C)(C)C)CC3C2C1=O` (stereo unspecified), the TGI is > 100 µM.
Turning to `C=CCO[C@H]1CO[C@H]2[C@@H]1OC[C@@H]2Oc1ccc(Nc2ccnc(Nc3ccc(O[C@H]4CO[C@H]5[C@@H]4OC[C@@H]5OCC=C)c(Cl)c3)n2)cc1Cl`, the GI50 was 0.652 µM and the TGI stood at 3.43 µM.
Regarding `O=C(O)CCC(NC(=O)c1ccc(Nc2nc3ccccc3nc2-c2cccs2)cc1)C(=O)O` (stereo unspecified), the TGI was > 100 µM.
As to `COc1cc2ccnc([C@@H](OC(=O)c3ccccc3)c3ccc(OC)c(OC)c3OC)c2cc1OC`, the TGI was > 100 µM.
The same measure, in the same setting: for `COC(=O)/C(C#N)=C1\NC(=O)c2ccccc21` the value was > 100 µM.
As to `O=C(O)CCNCCCNCCC(=O)O`, the TGI was > 100 µM.
Regarding `Cc1nc2sccn2c1-c1csc(Nc2ccccc2Cl)n1`, the GI50 was 3.32 µM and the TGI turned out to be 53.2 µM.
Regarding `NC1=NCCC1(c1ccccc1)c1ccccn1` (stereo unspecified), the TGI was > 100 µM.
Turning to `CC(C)=CCC\C(C)=C/C=C/C(C)=C\C=C\C(C)=C/C=C/C=C(C)\C=C\C=C(C)/C=C/C=C(/C)CCC=C(C)C`, the TGI is > 100 µM.
Same read-out and setting: for `COC(=O)c1ccccc1NC(=O)C(=O)Cc1nc2c3c(ccc2[nH]c1=O)C(=O)c1ccccc1C3=O` the value was > 100 µM; for `CCOC(=O)C(C)(C)Oc1ccc2c(-c3ccccc3)cc(=O)oc2c1`, 63.5 µM; for `CCCC1C(=O)CCc2c(OC)ccc(OC)c21` (stereo unspecified), > 100 µM.
As to `NC(=O)NO.O.O.O.O.O.O.O.O.O.O.O.[Ge].[Ge].[Ge].[Ge].[Ge].[O]=[Ge].[O]=[Ge].[O]=[Ge].[O]=[Ge].[O]=[Ge][OH]`, the TGI was > 81.6 µM.
Same read-out and setting: for `O=C(Nc1nc2ccc([N+](=O)[O-])cc2s1)C(=O)C(C1OC(=O)c2ccccc21)[N+](=O)[O-]` (stereo unspecified) the value was > 100 µM.
The compound `COc1cc2cc(OC)c3cc4c(cc3c2c(OC)c1OC)OCO4` came in with a TGI of 37.9 µM.
Take `CCC[CH2][Sn]([CH2]CCC)([S]c1cccc2cccnc12)[S]c1cccc2cccnc12`: the GI50 is 0.035 µM and the TGI was found to be 0.285 µM.
For `COC(=O)C1(C(C)C)CCc2c(OC)ccc(OC)c2C1=O` (stereo unspecified), the TGI was > 100 µM.

A further test relates to UACC-62 melanoma. The experiment in a line: NCI tumour cell line growth inhibition, 48 h.
For `CC1CCc2nc[nH]c(=O)c21` (stereo unspecified), the GI50 was > 100 µM and the TGI is > 100 µM.
In the case of `Cc1cc(N(CCC#N)CCC#N)ccc1N=Nc1ccc(S(N)(=O)=O)cc1`, the TGI is > 100 µM.
For the compound `Cc1nc2c(ccc3ncccc32)[nH]1`, the TGI was > 100 µM.
Still for that read-out and setting: for `CN(C)C(=S)N=C(Nc1ccccc1)Nc1ccccc1` the value was > 100 µM; for `Nc1ccccc1S(=O)(=O)N(CC(=O)O)c1ccccc1`, > 100 µM.
Take `COc1ccccc1N1C(=O)C2c3[nH]c4ccccc4c3C3CCC(C(C)(C)C)CC3C2C1=O` (stereo unspecified): the TGI is > 100 µM.
In the case of `C=CCO[C@H]1CO[C@H]2[C@@H]1OC[C@@H]2Oc1ccc(Nc2ccnc(Nc3ccc(O[C@H]4CO[C@H]5[C@@H]4OC[C@@H]5OCC=C)c(Cl)c3)n2)cc1Cl`, the GI50 was 1.81 µM and the TGI is 3.32 µM.
With `O=C(O)CCC(NC(=O)c1ccc(Nc2nc3ccccc3nc2-c2cccs2)cc1)C(=O)O` (stereo unspecified), the TGI is > 100 µM.

These data come from PubChem BioAssay (NCI).
